The test system of series [1] is chloroquine-sensitive P. falciparum (NF54). In words: Antimalarial screening, [3H]hypoxanthine incorporation. It counts as cell-based, Plasmodium falciparum. On the procedure:
Activity was determined by measuring the incorporation of [^3H]hypoxanthine, by the methods of Desjardins and Milhouse, with the following modifications, see […].; Haynes, […]. Antimicrob. Agents Chemother., 16: 710 (1979); Milhous, W. K.; Weatherly, […].; Antimicrob. Agents Chemother., 27: 525 (1985). […] Calbiochem #391338), 27 mM NaHCO3 (Gibco BRL # 11810-025), and 10% heat-inactivated human type O+serum (Interstate Blood Bank, Inc.), under 3% O2, 4% CO2, and 93% N2-Parasitemia was maintained at 0.05-3% and doubling time at approximately 15 hours by twice weekly change of medium and replenishment with fresh erythrocytes. […] Sigma-Aldrich #27,043-1). DMSO solutions were diluted 500-fold in medium, serially diluted in 0.2% DMSO in medium (to maintain constant solvent concentration), then 100 μL aliquots were pipetted into microtiter plate wells (Costar3595). […] Cells were harvested (Brandel MB-48R) onto GF-C glass filters (Brandel). The filters were washed five times with 3 mL water per sample spot, dried under a heat lamp, and counted (Beckman Model LS-6500) in scintillation cocktail (ICN Cytoscint). Decays per minute (dpm) values were downloaded and analyzed (Power Macintosh 7200/90; Microsoft Excel 5.0), to yield the mean and standard deviation at each drug concentration.

The test system of series [2] is murine keratinocyte cell line PE. In words: Growth inhibition of PE cells, MTT assay. It counts as cell-based. To be noted: 96 hours. As to the method: To determine the inhibitory effect of the compositions of the present invention on cell proliferation, screening assays were performed on a murine keratinocyte cell line PE. Cell line PE was chosen for its particular sensitivity to the induction of omithine decarboxylase (ODC) activity by the extensively characterized tumor promoter TPA. Cell line PE was derived from a papilloma-induced in female SENCAR mice by a standard skin initiation/promotion protocol, see Yuspa, S. H., et al., Carcinogenesis, 7:949-958 (1986). PE cell culture medium consisted of Eagle's minimal essential medium without calcium chloride (Whittaker Bioproducts, Walkersville, Mass.) supplemented with 8% chelexed fetal calf serum and 1% antibiotic-antimycotic (Gibco BRL) and the addition of CaCI2 to 0.05 mM Ca^++
MTT [3-(4,5-dimethylthiazol-2-yl)-2,5-diphenyltetraxolium bromide] was purchased from Sigma Chemical Co. (St. Louis, Mo.), and TPA was supplied by L.C. Services (Woburn, Mass.). L-[^14C]omithine ([…]) was from Amersham/Searle Corp. (Arlington Heights, Ill.). Chemical solvents used in all assays of biological activity were of the highest grade commercially available.
Growth curves, shown in FIG. 5, for PE cells treated with calcitriol and the C-10 carbon-substituted dimers VII-f, VII-g and VII-h generated by assay for the reduction of the tetrazolium-based compound MTT, see Charmichael, et al., Cancer Res., 47:936-942 (1987). A mitochondrial dehydrogenase reduces MTT to a blue formazan product with an absorbance maximum of 505 nm in DMSO; the number of viable cells can thus be determined spectrophotometrically. PE cells were seeded at a density of 5,000 cells/well in 50 IL of medium into 96-well microtiter plates. Twelve hours later, the medium was removed, and cells were treated with 100 μL of fresh medium into which the appropriate amount of calcitriol or analog dissolved in dimethyl sulfoxide (DMSO) had been added, with the concentration of DMSO held constant at 0.1 %. […] At 24-hour intervals following the initial treatment of the cells with compounds, 0.1 mg (50 μL of a 2 mg/mL solution) of MTT was added to each well. After 4 hours, the MTT was removed and DMSO added to dissolve the blue formazan dye. Using a microtiter plate reader, the A505 was then determined and cell number calculated from blank-subtracted absorbance values.
For orientation: Tetrazolium dyes change colour on reduction, which living cells bring about.

The conditions of series [3]: rat liver microsomes; cited from earlier work. In general terms: Microsomes from liver hold many membrane-bound enzymes, among them those of drug oxidation.
The next series has as its system P. berghei. The following applies: P. berghei-infected mice; cited from earlier work.
For series [4] the following is noted: in vivo; cited from earlier work.
Where [5] appears, read: chloroquine-sensitive P. falciparum (NF54), read-out: IC50.
Setting [6] is: Plasmodium falciparum, NF54, chloroquine-sensitive P. falciparum (NF54), read-out: IC50.

Like-named read-outs stand apart in the source and are kept apart here.

A word on the IC50: it is the concentration at which inhibition is half-maximal. The term melting point denotes the temperature of the solid-liquid transition.

With `C=CC1=C(C)C2CCC(C)C3CCC4(C)OOC23C(O1)O4` (stereo not drawn) [VII-a, 10-Vinylanhydroartemisinin], the IC50 in series [1] (setting [5]) was found to be 28 nM.

For `C=C1/C(=C\C=C2/CCC[C@]3(C)[C@@H]([C@H](C)CCCC(C)(C)O)CC[C@@H]23)C[C@@H](O)C[C@@H]1O` [calcitriol, 1α, 25-dihydroxyvitamin D3, reference compound], the “viability of treated cells by trypan blue exclusion” value in series [2] was “identical to control cells”.

For the molecule `CCO[C@H]1O[C@@H]2O[C@@]3(C)CC[C@H]4[C@H](C)CC[C@@H]([C@H]1C)[C@@]24OO3` [arteether], the “conversion into dihydroartemisinin (II-1)” value in series [3] was “rapidly converted”.

For `CC1=CO[C@@H]2O[C@]3(C)CC[C@H]4[C@H](C)CC[C@@H]1[C@@]24OO3` [III], in the series on P. berghei, the activity in words entry is “inactive”.

Molecule `CC1=C(C=O)O[C@@H]2O[C@@]3(C)CC[C@H]4[C@H](C)CC[C@@H]1[C@@]24OO3` [Ie, 10-Formylanhydroartemisinin] returned a melting point of 115 to 117 °C. For the same molecule, in series [1] (setting [6]), the IC50 amounted to 37 nM.

Regarding 10-(Benzhydryl)anhydroartemisinin [I-5], in series [1] (setting [5]), the IC50 stood at 4.5 nM.

As to `CC1=C(c2nc3ccccc3s2)OC2OC3(C)CCC4C(C)CCC1C24OO3` (stereo not drawn) [Benzo-4, 10-(2′-Benzothiazolyl)anhydroartemisinin], the IC50 in series [1] (setting [5]) turned out to be 7.8 nM.

As for `CC1=C(c2nccs2)O[C@@H]2O[C@@]3(C)CC[C@H]4[C@H](C)CC[C@@H]1[C@@]24OO3` [Ib, 10-(2′-Thiazolyl)anhydroartemisinin], in series [1] (Plasmodium falciparum, NF54), inhibition was half-maximal at 14 nM (IC50).

Regarding `CC1=C(C=Cc2ccc([N+](=O)[O-])cc2)OC2OC3(C)CCC4C(C)CCC1C24OO3` (stereo not drawn) [E-VII-d, 10-(p-Nitrostyryl)anhydroartemisinin], in series [1] (setting [5]), the IC50 is 11 nM.

`CC1=C(C=Cc2ccc([N+](=O)[O-])cc2)OC2OC3(C)CCC4C(C)CCC1C24OO3` (stereo not drawn) [Z-VII-d, 10-(p-Nitrostyryl)anhydroartemisinin]: the IC50 in series [1] (setting [5]) came out at 10 nM.

Take `CC1=C(C=Cc2ccccc2)OC2OC3(C)CCC4C(C)CCC1C24OO3` (stereo not drawn) [Z-VII-C, 10-(Styryl)anhydroartemisinin]: the IC50 in series [1] (setting [5]) was 8.1 nM.

As for `CC1=C(C(=O)c2ccccc2)O[C@@H]2O[C@@]3(C)CC[C@H]4[C@H](C)CC[C@@H]1[C@@]24OO3` [I-4, 10-Benzoylanhydroartemisinin], the IC50 in series [1] (setting [6]) worked out at 4.6 nM.

As for `CC1=C(C=Cc2ccccc2)OC2OC3(C)CCC4C(C)CCC1C24OO3` (stereo not drawn) [E-VII-c, 10-(Styryl)anhydroartemisinin], the IC50 in series [1] (setting [5]) was found to be 16 nM.

For the molecule `C[C@H]1[C@@H](O)O[C@@H]2O[C@@]3(C)CC[C@H]4[C@H](C)CC[C@@H]1[C@@]24OO3` [II-1, dihydroartemisinin], the half-life in plasma result in series [4] was “less than two hours”.

The values are drawn from patent US20020055528A1, “Artemisinin analogs having antimalarial, antiproliferative, and antitumor activities and chemoselective methods of making the same” (priority 1999, published 2002).
